These results are taken from patent publication US8008303B2, “Biphenyl derivatives and their use in treating hepatitis C” (AstraZeneca AB, priority 2005, dated 2011).

For data set [1], the system named is HCV replicon cells Huh 9B. The data set can be described thus: HCV replicon assay (luciferase readout). It is filed as cell-based. The essentials: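 Compounds, made up at twice final strength (final DMSO 1%), were added to subgenomic replicon cells one day after plating. Incubation then ran 72 h at 37 °C, 5% CO2, without G418. Replication was quantified as firefly luciferase luminescence in lysed cells, with cytotoxicity assessed on a duplicate clear plate.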
In general terms: In antiviral work, replicon cells carry a viral genome segment that copies itself.

For data set [2], the system named is HCV replicon cells Huh 9B. It is filed as cell-based.
Setting [3] is: Hepatitis C virus, 72 h, concentration reducing replicon level (luciferase activity) by 50% vs untreated cell control, 72 h incubation.
Setting [4] is: concentration reducing total cell area by 50% relative to DMSO controls, methylene blue, absorbance 620 nm, 72 h incubation.

pIC50: −log10 of the molar value. Read-outs that look alike come from different tables or passages of the source.

A word on the pIC50: it is the IC50 on a negative log10 scale, so that one unit is a factor of ten. Low values mean a large IC50, high ones a small IC50.

Regarding `Cc1ccc(C(=O)Nc2ccc(N3CCOCC3)cc2)cc1-c1ccc(C(=O)Nc2ccc(CN3CCS(=O)(=O)CC3)cc2)cc1` [Example 50, 6-Methyl-biphenyl-3,4′-dicarboxylic acid 4′-{[4-(1,1-dioxo-1lambda*6*-thiomorpholin-4-ylmethyl)-phenyl]-amide} 3-[(4-morpholin-4-yl-phenyl)-amide]], the pIC50 in data set [1] was over 6.00. Also, the TD50 result in data set [2] is given as “** (key: * < 50 μM; ** > 50 μM)”.

For the compound `CCC1(c2ccc(NC(=O)c3ccc(-c4cc(C(=O)Nc5ccc(N6CCOCC6)cc5)ccc4C)cc3)cc2)CCC(O)NC1=O` (stereo not shown) [Example 71, 6-Methyl-biphenyl-3,4′-dicarboxylic acid 4′-{[4-(3-ethyl-6-hydroxy-2-oxo-piperidin-3-yl)-phenyl]-amide} 3-[(4-morpholin-4-yl-phenyl)-amide]], the pIC50 in data set [1] is over 6.00. Further, the TD50 result in data set [2] was “* (key: * < 50 μM; ** > 50 μM)”.

In data set [1] (setting [3]), `CCCS(=O)(=O)N1CCN(Cc2ccc(NC(=O)c3ccc(-c4cc(NC(=O)C5CC5)ccc4C)cc3)cc2)CC1` [Example 243, 5′-(Cyclopropanecarbonyl-amino)-2′-methyl-biphenyl-4-carboxylic acid [4-(4-propane-1-sulfonyl-piperazin-1-ylmethyl)-phenyl]-amide] showed a negative logarithm of the IC50 (pIC50) of over 6.00. Besides, in data set [2] (setting [4]), the TD50 entry is given as “* (* < 50 μM)”.

With `Cc1ccc(C(=O)Nc2ccc(C(=O)N(C)C)cc2)cc1-c1ccc(C(=O)Nc2ccc(CN3CCS(=O)(=O)CC3)cc2)cc1` [Example 142, 6-Methyl-biphenyl-3,4′-dicarboxylic acid 3-[(4-dimethylcarbamoyl-phenyl)-amide] 4′-{[4-(1,1-dioxo-1lambda*6*-thiomorpholin-4-ylmethyl)-phenyl]-amide}], the pIC50 in data set [1] is 5.30 to 6.00. The TD50 result in data set [2] is “* (key: * < 50 μM; ** > 50 μM)”.

In the case of `Cc1ccc(C(=O)N2CCC(N3CCCC3)CC2)cc1-c1ccc(C(=O)Nc2ccc(CN3CCS(=O)(=O)CC3)cc2)cc1` [Example 128, 2′-Methyl-5′-(4-pyrrolidin-1-yl-piperidine-1-carbonyl) -biphenyl-4-carboxylic acid [4-(1,1-dioxo-1lambda*6*-thiomorpholin-4-ylmethyl)-phenyl]-amide], the pIC50 in data set [1] (setting [3]) is 5.30 to 6.00. Also, in data set [2] (setting [4]), the TD50 entry is “* (* < 50 μM)”.

Consider `Cc1ccc(C(=O)Nc2ccc(N3CCOCC3)cc2)cc1-c1ccc(NC(=O)c2ccc(N3CCOCC3)cc2)cc1` [Example 119, 6-Methyl-4′-(4-morpholin-4-yl-benzoylamino)-biphenyl-3-carboxylic acid (4-morpholin-4-yl-phenyl)-amide], for which the negative-log IC50 (pIC50) in data set [1] (setting [3]) is 5.30 to 6.00. Further, the TD50 entry in data set [2] (setting [4]) is given as “** (** > 50 μM)”.

Turning to `CC(C)S(=O)(=O)N1CCN(Cc2ccc(NC(=O)c3ccc(-c4cc(NC(=O)NC5CCCCC5)ccc4Cl)cc3)cc2)CC1` [Example 254, 2′-Chloro-5′-(3-cyclohexyl-ureido)-biphenyl-4-carboxylic acid {4-[4-(propane-2-sulfonyl)-piperazin-1-ylmethyl]-phenyl}-amide], the negative-log IC50 (pIC50) in data set [1] (setting [3]) was over 6.00. For the same compound, in data set [2] (setting [4]), the TD50 result is on record as “* (* < 50 μM)”.

`CC(=O)C(=O)Nc1ccc(C)c(-c2ccc(C(=O)Nc3ccc(CN4CCS(=O)(=O)CC4)cc3)cc2)c1` [Example 190, 2′-Methyl-5′-(2-oxo-propionylamino)-biphenyl-4-carboxylic acid [4-(1,1-dioxo-1lambda*6*-thiomorpholin-4-ylmethyl)-phenyl]-amide] had a pIC50 in data set [1] (setting [3]) of over 6.00. Moreover, the TD50 result in data set [2] (setting [4]) was “* (* < 50 μM)”.

In data set [1] (setting [3]), `COc1cccc(NC(=O)c2ccc(-c3cc(NC(=O)c4ccc(N5CCOCC5)cc4)ccc3C)cc2)c1` [Example 91, 2′-Methyl-5′-(4-morpholin-4-yl-benzoylamino)-biphenyl-4-carboxylic acid (3-methoxy-phenyl)-amide] showed a pIC50 of 5.30 to 6.00. Moreover, the TD50 entry in data set [2] (setting [4]) is recorded as “** (** > 50 μM)”.

`Cc1ccc(C(=O)Nc2ccc(N3CCOCC3)cc2)cc1-c1ccc(C(=O)Nc2cccnc2)cc1` [Example 36, 6-Methyl-biphenyl-3,4′-dicarboxylic acid 3-[(4-morpholin-4-yl-phenyl)-amide] 4′-pyridin-3-ylamide] gave a pIC50 in data set [1] of 5.30 to 6.00. Further, in data set [2], the TD50 entry was “* (key: * < 50 μM; ** > 50 μM)”.

In data set [1], `Cc1ccc(C(=O)NCCCN2CCCC2=O)cc1-c1ccc(C(=O)Nc2ccc(CN3CCS(=O)(=O)CC3)cc2)cc1` [Example 137, 6-Methyl-biphenyl-3,4′-dicarboxylic acid 4′-{[4-(1,1-dioxo-1lambda*6*-thiomorpholin-4-ylmethyl)-phenyl]-amide} 3-{[3-(2-oxo-pyrrolidin-1-yl) -propyl]-amide}] showed a pIC50 of 5.30 to 6.00. Moreover, the TD50 entry in data set [2] is on record as “* (key: * < 50 μM; ** > 50 μM)”.

Compound `CCC1(c2ccc(NC(=O)c3ccc(-c4cc(NC(=O)C5CC5)ccc4C)cc3)cc2)CCC(=O)NC1=O` (stereo not shown) [Example 220, 5′-(Cyclopropanecarbonyl-amino)-2′-methyl-biphenyl-4-carboxylic acid [4-(3-ethyl-2,6-dioxo-piperidin-3-yl)-phenyl]-amide] showed a pIC50 in data set [1] (setting [3]) of over 6.00. For the same compound, the TD50 result in data set [2] (setting [4]) is given as “* (* < 50 μM)”.

Consider `Cc1ccc(NC(=O)C2CCCC2)cc1-c1ccc(C(=O)Nc2ccc(CN3CCS(=O)(=O)CC3)cc2)cc1` [Example 167, 5′-(Cyclopentanecarbonyl-amino)-2′-methyl-biphenyl-4-carboxylic acid [4-(1,1-dioxo-1lambda*6*-thiomorpholin-4-ylmethyl)-phenyl]-amide], for which the pIC50 in data set [1] (setting [3]) is over 6.00. For the same compound, in data set [2] (setting [4]), the TD50 result is listed as “* (* < 50 μM)”.

Regarding `Cc1ccc(NS(=O)(=O)c2ccc(N3CCOCC3)nc2)cc1-c1ccc(C(=O)Nc2ccc(CN3CCS(=O)(=O)CC3)cc2)cc1` [Example 203, 2′-Methyl-5′-(6-morpholin-4-yl-pyridine-3-sulfonylamino)-biphenyl-4-carboxylic acid [4-(1,1-dioxo-1lambda*6*-thiomorpholin-4-ylmethyl)-phenyl]-amide], the pIC50 in data set [1] (setting [3]) was 5.30 to 6.00. For the same compound, the TD50 result in data set [2] (setting [4]) is listed as “* (* < 50 μM)”.

`COc1ccc(NC(=O)c2ccc(-c3cc(C(=O)Nc4ccc(N5CCOCC5)cc4)ccc3C)cc2)cn1` [Example 2, 6-Methyl-biphenyl-3,4′-dicarboxylic acid 4′-[(6-methoxy-pyridin-3-yl)-amide] 3-[(4-morpholin-4-yl-phenyl)-amide]] gave a negative logarithm of the IC50 (pIC50) in data set [1] of 5.30 to 6.00. For the same compound, the TD50 result in data set [2] is listed as “** (key: * < 50 μM; ** > 50 μM)”.

Compound `Cc1ccc(C(=O)Nc2ccc(N3CCOCC3)cc2)cc1-c1ccc(CNc2ccc3cn[nH]c3c2)cc1` [Example 97, 4′-[(1H-Indazol-6-ylamino)-methyl]-6-methyl-biphenyl-3-carboxylic acid (4-morpholin-4-yl-phenyl)-amide] showed a pIC50 in data set [1] (setting [3]) of 5.30 to 6.00. Besides, the TD50 result in data set [2] (setting [4]) is given as “** (** > 50 μM)”.

In data set [1], `Cc1ccc(C(=O)NCCCN2CCN(C)CC2)cc1-c1ccc(C(=O)Nc2ccc(N3CCOCC3)cc2)cc1` [Example 9, 6-Methyl-biphenyl-3,4′-dicarboxylic acid 3-{[3-(4-methyl-piperazin-1-yl)-propyl]-amide} 4′-[(4-morpholin-4-yl-phenyl)-amide]] gave a negative logarithm of the IC50 (pIC50) of under 5.30. Moreover, in data set [2], the TD50 entry was “* (key: * < 50 μM; ** > 50 μM)”.

Take `Cc1ccc(C(=O)NCCc2cnc[nH]2)cc1-c1ccc(C(=O)Nc2ccc(CN3CCS(=O)(=O)CC3)cc2)cc1` [Example 127, 6-Methyl-biphenyl-3,4′-dicarboxylic acid 4′-{[4-(1,1-dioxo-1lambda*6*-thiomorpholin-4-ylmethyl)-phenyl]-amide} 3-{[2-(3H-imidazol-4-yl) -ethyl]-amide}]: the pIC50 in data set [1] was 5.30 to 6.00. Also, the TD50 entry in data set [2] is reported as “* (key: * < 50 μM; ** > 50 μM)”.

Turning to `CCC1(c2ccc(NC(=O)c3ccc(C)c(-c4ccc(C(=O)Nc5ccc(CN6CCS(=O)(=O)CC6)cc5)cc4)c3)cc2)CCC(=O)NC1=O` (stereo not shown) [Example 138, 6-Methyl-biphenyl-3,4′-dicarboxylic acid 4′-{[4-(1,1-dioxo-1lambda*6*-thiomorpholin-4-ylmethyl)-phenyl]-amide} 3-{[4-(3-ethyl-2,6-dioxo-piperidin-3-yl)-phenyl]-amide}], the negative-log IC50 (pIC50) in data set [1] was over 6.00. Also, in data set [2], the TD50 result is “* (key: * < 50 μM; ** > 50 μM)”.

Consider `CCCN(C)Cc1ccc(NC(=O)c2ccc(-c3cc(C(=O)Nc4ccc(N5CCOCC5)cc4)ccc3C)cc2)cc1` [Example 76, 6-Methyl-biphenyl-3,4′-dicarboxylic acid 4′-({4-[(methyl-propyl-amino)-methyl]-phenyl}-amide) 3-[(4-morpholin-4-yl-phenyl)-amide]], for which the negative logarithm of the IC50 (pIC50) in data set [1] is 5.30 to 6.00. For the same compound, the TD50 result in data set [2] was “* (key: * < 50 μM; ** > 50 μM)”.

`Cc1cc(C(=O)Nc2ccc(N3CCOCC3)cc2)ccc1-c1cccc(C(=O)NCc2cccc(Cl)c2)c1` [Example 66, 2′-Methyl-biphenyl-3,4′-dicarboxylic acid 3-(3-chloro-benzylamide) 4′-[(4-morpholin-4-yl-phenyl)-amide]] gave a pIC50 in data set [1] of 5.30 to 6.00. In data set [2], the TD50 entry is “* (key: * < 50 μM; ** > 50 μM)”.

`Cc1ccc(NC(=O)c2cscn2)cc1-c1ccc(C(=O)Nc2ccc(CN3CCS(=O)(=O)CC3)cc2)cc1` [Example 177, Thiazole-4-carboxylic acid {4′-[4-(1,1-dioxo-1lambda*6*-thiomorpholin-4-ylmethyl)-phenylcarbamoyl]-6-methyl-biphenyl-3-yl}-amide] showed a pIC50 in data set [1] (setting [3]) of 5.30 to 6.00. Moreover, the TD50 result in data set [2] (setting [4]) is “* (* < 50 μM)”.

In data set [1], `Cc1ccc(C(=O)Nc2ccc(C(=O)N3CCOCC3)cc2)cc1-c1ccc(C(=O)Nc2ccc(CN3CCS(=O)(=O)CC3)cc2)cc1` [Example 140, 6-Methyl-biphenyl-3,4′-dicarboxylic acid 4′-{[4-(1,1-dioxo-1lambda*6*-thiomorpholin-4-ylmethyl)-phenyl]-amide} 3-{[4-(morpholine-4-carbonyl) -phenyl]-amide}] showed a pIC50 of 5.30 to 6.00. Besides, the TD50 entry in data set [2] was “* (key: * < 50 μM; ** > 50 μM)”.
